Laboratory results from patent US20070015823A1, “Ambruticin VS compounds” (priority 2004, published 2007).
In brackets after ≈: the same amount, converted by molar mass. Where two headings read alike, the source gives them in different places.

Key:
A. fumigatus ATCC 204305 = assay: Broth microdilution antifungal susceptibility, NCCLS M38-A; type: cell-based, Aspergillus fumigatus; conditions: minimal concentration inhibiting >95% growth; average of at least two assays (except I-l and I-x)
Blastomyces dermatitidis = assay: as above; type: cell-based
A. flavus ATCC 204304 = assay: as above; type: cell-based, Aspergillus flavus; conditions: minimal concentration inhibiting >95% growth; average of at least two assays (except I-l and I-x)
Histoplasma capsulatum = type: cell-based
C. immitis = assay: microbe, parasite or virus in culture; type: cell-based, Coccidioides immitis
Cryptococcus neoformans = assay: Broth microdilution antifungal susceptibility, NCCLS M38-A; conditions: 50% growth inhibition, range = minimum and maximum of multiple assays; for MIC C. neoformans 97-14: strain 97-14; for MIC C. neoformans 11239: strain 11239; for MIC C. neoformans 11240: strain 11240
[1] = system: Trichophyton mentagrophytes; assay: Dermatophyte broth microdilution, NCCLS M38-A; type: cell-based
Microsporum gypseum = assay: Dermatophyte broth microdilution, NCCLS M38-A; type: cell-based
Trichophyton rubrum = assay: Dermatophyte broth microdilution, NCCLS M38-A; type: cell-based
Microsporum canis = assay: Dermatophyte broth microdilution, NCCLS M38-A; type: cell-based
Candida albicans = conditions: Candida albicans

Compound | MIC0 A. fumigatus ATCC 204305 (A. fumigatus ATCC 204305) [µg/mL] | MIC0 A. flavus ATCC 204304 (A. flavus ATCC 204304) [µg/mL] | MIC C. neoformans 97-14 (Cryptococcus neoformans) [µg/mL] | MIC C. neoformans 11239 (Cryptococcus neoformans) [µg/mL] | MIC C. neoformans 11240 (Cryptococcus neoformans) [µg/mL] | other results
CC[C@H]1O[C@@H](/C(C)=C/[C@H](C)/C=C/[C@H]2[C@@H](C)[C@@H]2/C=C/[C@@H]2O[C@H](CCO)C[C@H](N(C)C(C)C)[C@H]2O)CC=C1C [I-oo, (5S,6R)-5-(N-isoproyl-methylamino)polyangi-1,6-diol] | 32 | 2 | – | – | – | MIC B. dermatitidis Gu (Blastomyces dermatitidis): 0.39 µg/mL (≈ 0.756 µM); MIC B. dermatitidis Kr (Blastomyces dermatitidis): >12.5 µg/mL; MIC B. dermatitidis V (Blastomyces dermatitidis): >12.5 µg/mL; MIC H. capsulatum G217B (Histoplasma capsulatum): <0.19 µg/mL; MIC H. capsulatum GS20 (Histoplasma capsulatum): <0.19 µg/mL
CC[C@H]1O[C@@H](/C(C)=C/[C@H](C)/C=C/[C@H]2[C@@H](C)[C@@H]2/C=C/[C@@H]2O[C@H](CC(=O)O)C[C@H](NC)[C@H]2O)CC=C1C [Ambruticin VS-4, (5S,6R)-5-(methylamino)-6-hydroxypolyangioic acid, reference compound] | 0.60 | 0.47 | – | – | – | MIC2 B. dermatitidis 05-106 (Blastomyces dermatitidis): ≦0.15 μg/mL; MIC2 B. dermatitidis 05-186 (Blastomyces dermatitidis): ≦0.15 μg/mL; MIC2 B. dermatitidis 05-1291 (Blastomyces dermatitidis): ≦0.15 μg/mL; MIC2 C. immitis 05-469 (C. immitis): ≦0.15 μg/mL; MIC2 C. immitis 05-955 (C. immitis): ≦0.15 μg/mL; MIC2 C. immitis 05-1387 (C. immitis): ≦0.15 μg/mL; MIC2 H. capsulatum 05-959 (Histoplasma capsulatum): ≦0.15 μg/mL; MIC2 H. capsulatum 05-1097 (Histoplasma capsulatum): ≦0.15 μg/mL; MIC2 H. capsulatum 05-1159 (Histoplasma capsulatum): ≦0.15 μg/mL
CC[C@H]1O[C@@H](/C(C)=C/[C@H](C)/C=C/[C@H]2[C@@H](C)[C@@H]2/C=C/[C@@H]2O[C@H](CC(=O)O)C[C@H](NCCO)[C@H]2O)CC=C1C [I-ll, (5S,6R)-5-[(2-hydroxyethyl)amino]-6-hydroxypolyangioic acid] | 10 | 10 | 0.5 (≈ 0.966 µM) | 1 (≈ 1.93 µM) | 0.5 (≈ 0.966 µM) | –
CC[C@H]1O[C@@H](/C(C)=C/[C@H](C)/C=C/[C@H]2[C@@H](C)[C@@H]2/C=C/[C@@H]2O[C@H](CC(=O)O)C[C@H](NC(C)C)[C@H]2O)CC=C1C [I-kk, (5S,6R)-5-(isopropylamino)-6-hydroxypolyangioic acid] | 1 | 1.1 | 0.25 (≈ 0.485 µM) | 0.125 (≈ 0.242 µM) | 0.0625 (≈ 0.121 µM) | MIC B. dermatitidis Gu (Blastomyces dermatitidis): 12.5 µg/mL (≈ 24.2 µM); MIC B. dermatitidis Kr (Blastomyces dermatitidis): >12.5 µg/mL; MIC B. dermatitidis V (Blastomyces dermatitidis): >12.5 µg/mL; MIC H. capsulatum G217B (Histoplasma capsulatum): <0.19 µg/mL; MIC H. capsulatum GS20 (Histoplasma capsulatum): <0.19 µg/mL
CC[C@H]1O[C@@H](/C(C)=C/[C@H](C)/C=C/[C@H]2[C@@H](C)[C@@H]2/C=C/[C@@H]2O[C@H](CC(=O)O)C[C@H](N(C)Cc3ncc[nH]3)[C@H]2O)CC=C1C [I-y, (5S,6R)-5-(N-(2-imidazolyl)methyl-methylamino)-6-hydroxypolyangioic acid] | 8.5 | 9 | 0.5 (≈ 0.881 µM) | 1 (≈ 1.76 µM) | 1 (≈ 1.76 µM) | MIC0 Tm [1]: 4.18 µg/mL; MIC B. dermatitidis Gu (Blastomyces dermatitidis): 3.13 µg/mL (≈ 5.51 µM); MIC B. dermatitidis Kr (Blastomyces dermatitidis): >12.5 µg/mL; MIC B. dermatitidis V (Blastomyces dermatitidis): >12.5 µg/mL; MIC0 Mg (Microsporum gypseum): 2.51 µg/mL; MIC H. capsulatum G217B (Histoplasma capsulatum): <0.19 µg/mL; MIC H. capsulatum GS20 (Histoplasma capsulatum): <0.19 µg/mL; MIC0 Tr (Trichophyton rubrum): 3.17 µg/mL; MIC0 Mc (Microsporum canis): 4 µg/mL
CC[C@H]1O[C@@H](/C(C)=C/[C@H](C)/C=C/[C@H]2[C@@H](C)[C@@H]2/C=C/[C@@H]2O[C@H](CCO)C[C@H](N(C)CCO)[C@H]2O)CC=C1C [I-nn, (5S,6R)-5-[N-(2-hydroxyethyl)methylamino]polyangi-1,6-diol] | 32 | 4 | – | – | – | MIC B. dermatitidis Gu (Blastomyces dermatitidis): >12.5 µg/mL; MIC B. dermatitidis Kr (Blastomyces dermatitidis): >12.5 µg/mL; MIC B. dermatitidis V (Blastomyces dermatitidis): >12.5 µg/mL; MIC H. capsulatum G217B (Histoplasma capsulatum): <0.19 µg/mL; MIC H. capsulatum GS20 (Histoplasma capsulatum): <0.19 µg/mL
CC[C@H]1O[C@@H](/C(C)=C/[C@H](C)/C=C/[C@H]2[C@@H](C)[C@@H]2/C=C/[C@@H]2O[C@H](CC(=O)O)C[C@H](NCc3ccc(OC)c(OC)c3)[C@H]2O)CC=C1C [I-hhh, (5S,6R)-5-(3,4-dimethoxybenzyl)amino-6-hydroxypolyangioic acid] | >32 | >32 | – | – | – | –
CC[C@H](C)C[C@H](C)CCCCCCCCC(=O)N[C@H]1C[C@@H](O)[C@@H](NCCN)NC(=O)[C@@H]2[C@@H](O)CCN2C(=O)[C@H]([C@H](O)CCN)NC(=O)[C@H]([C@H](O)[C@@H](O)c2ccc(O)cc2)NC(=O)[C@@H]2C[C@@H](O)CN2C(=O)[C@H]([C@@H](C)O)NC1=O [Caspofungin, reference compound] | – | – | – | – | – | MIC (Candida albicans; read-out: MIC C. albicans 24433): 2 µg/mL (≈ 1.83 µM); MIC (Candida albicans; read-out: MIC C. albicans 90028): 2 µg/mL (≈ 1.83 µM)
CC[C@H]1O[C@@H](/C(C)=C/[C@H](C)/C=C/[C@H]2[C@@H](C)[C@@H]2/C=C/[C@@H]2O[C@H](CC(=O)O)C[C@H](N(Cc3c[nH]cn3)Cc3c[nH]cn3)[C@H]2O)CC=C1C [I-g, (5S,6R)-5-{di [(4-imidazolyl)methyl]amino}-6-hydroxypolyangioic acid] | 22.67 | 24.0 | – | – | – | –
CC[C@H]1O[C@@H](/C(C)=C/C/C=C/[C@H]2[C@@H](C)[C@@H]2/C=C/[C@@H]2O[C@H](CC(=O)O)C[C@H](N(C)C)[C@H]2O)CC=C1C [II-a, (5S,6R)-5-dimethylamino-6-hydroxy-15-desmethylpolyangioic acid] | 0.6 | 0.92 | – | – | – | –
CC[C@H]1O[C@@H](/C(C)=C/[C@H](C)/C=C/[C@H]2[C@@H](C)[C@@H]2/C=C/[C@@H]2O[C@H](CC(=O)NCCO)C[C@H](N(C)C)[C@H]2O)CC=C1C [I-rr, (5S,6R)-5-dimethylamino-6-hydroxy-N-(2-hydroxyethyl)polyangiamide] | 4 | 2 | – | – | – | –
CC[C@H]1O[C@@H](/C(C)=C/[C@H](C)/C=C/[C@H]2[C@@H](C)[C@@H]2/C=C/[C@@H]2O[C@H](CCO)C[C@H](NC)[C@H]2O)CC=C1C [I-ee, (5S,6R)-5-(methylamino)polyangi-1,6-diol] | 9.5 | 3 | 2 (≈ 4.22 µM) | 2 (≈ 4.22 µM) | 2 (≈ 4.22 µM) | –
CC[C@H]1O[C@@H](/C(C)=C/[C@H](C)/C=C/[C@H]2[C@@H](C)[C@@H]2/C=C/[C@@H]2O[C@H](CC(=O)O)C[C@H](N(C)CC3CC3)[C@H]2O)CC=C1C [I-b, (5S,6R)-5-(N-cyclopropylmethyl-methylamino)-6-hydroxypolyangioic acid] | 1.5 | 1.5 | 2 (≈ 3.69 µM) | 2 (≈ 3.69 µM) | 2 (≈ 3.69 µM) | –
(5S,6R,16S,17S)-5-amino-6-hydroxy-16,17-epxoy-16,17-dihydropolyangioic acid [V-d] | >32 | >32 | – | – | – | –
CC[C@H]1O[C@@H](/C(C)=C/[C@H](C)/C=C/[C@H]2[C@@H](C)[C@@H]2/C=C/[C@@H]2O[C@H](CC(=O)O)C[C@H](N(C)C3CCCC3)[C@H]2O)CC=C1C [I-c, (5S,6R)-5-(N-cyclopentyl-methylamino)-6-hydroxypolyangioic acid] | 2.67 | 2.0 | 1 (≈ 1.8 µM) | 2 (≈ 3.6 µM) | 2 (≈ 3.6 µM) | –
CC[C@H]1O[C@@H](/C(C)=C/[C@H](C)/C=C/[C@H]2[C@@H](C)[C@@H]2/C=C/[C@@H]2O[C@H](CC(=O)NCCN(C)C)C[C@H](N(C)C)[C@H]2O)CC=C1C [I-qq, (5S,6R)-5-dimethylamino-6-hydroxy-N-[(2-dimethylamino)ethyl]polyangiamide] | 32 | >32 | – | – | – | –
CC[C@H]1O[C@@H](/C(C)=C/[C@H](C)/C=C/[C@H]2[C@@H](C)[C@@H]2/C=C/[C@@H]2O[C@H](CC(=O)O)CC(=O)[C@H]2O)CC=C1C [5-keto ambruticin S, (6R)-5-Oxo-6-hydroxypolyangioic acid, reference compound] | 2.0 | 1.0 | 0.5 (≈ 1.06 µM) | 2 (≈ 4.23 µM) | 2 (≈ 4.23 µM) | –
CC[C@H]1O[C@@H](/C(C)=C/[C@H](C)/C=C/[C@H]2[C@@H](C)[C@@H]2/C=C/[C@@H]2O[C@H](CC(=O)O)C[C@H](N(C)C)[C@H]2O)CC=C1C [Ambruticin VS-3, (5S,6R)-5-(dimethylamino)-6-hydroxypolyangioic acid, reference compound] | 0.44 | 0.64 | – | – | – | –
